# Assay results published in PubChem BioAssay (NCI).
#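 Assay format: 96-well plates, 48-hour exposure. TGI is the concentration that stops growth completely.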
# Test system: MDA-N
# Assay: NCI tumour cell line growth inhibition, 48 h
row,SMILES,TGI [µM]
1,[N-]=[N+]=CC(=O)OC1CCOCC1,> 100
2,CS(=O)(=O)OCOS(C)(=O)=O,> 100

# Test system: HL-60(TB) leukemia
# Assay: NCI tumour cell line growth inhibition, 48 h
row,SMILES,TGI [µM]
1,CCCCN(CC)C(=O)C1=C(C)NC(C)=C(C(=O)N(CC)CCCC)C1,> 100
2,CCOC(=O)c1csc(NC(=O)CN2CCN(c3ccccc3)CC2)n1,> 100
3,[N-]=[N+]=CC(=O)OC1CCOCC1,> 100
4,CS(=O)(=O)OCOS(C)(=O)=O,> 100

# Test system: HCC-2998 colon
# Assay: NCI tumour cell line growth inhibition, 48 h
row,SMILES,TGI [µM]
1,CCCCN(CC)C(=O)C1=C(C)NC(C)=C(C(=O)N(CC)CCCC)C1,> 100
2,CCOC(=O)c1csc(NC(=O)CN2CCN(c3ccccc3)CC2)n1,> 100
3,COc1cc2c(cc1OCCCCCN1C(=O)c3cccc4cccc(c34)C1=O)N=C[C@@H]1CCCN1C2=O,> 100
4,[N-]=[N+]=CC(=O)OC1CCOCC1,> 100
5,CS(=O)(=O)OCOS(C)(=O)=O,> 100

# Test system: NCI/ADR-RES ovarian
# Assay: NCI tumour cell line growth inhibition, 48 h
row,SMILES,TGI [µM]
1,CCCCN(CC)C(=O)C1=C(C)NC(C)=C(C(=O)N(CC)CCCC)C1,> 100
2,CCOC(=O)c1csc(NC(=O)CN2CCN(c3ccccc3)CC2)n1,> 100
3,COc1cc2c(cc1OCCCCCN1C(=O)c3cccc4cccc(c34)C1=O)N=C[C@@H]1CCCN1C2=O,0.89
4,CS(=O)(=O)OCOS(C)(=O)=O,> 100

# Test system: SNB-19 CNS
# Assay: NCI tumour cell line growth inhibition, 48 h
row,SMILES,TGI [µM]
1,CCCCN(CC)C(=O)C1=C(C)NC(C)=C(C(=O)N(CC)CCCC)C1,> 100
2,CCOC(=O)c1csc(NC(=O)CN2CCN(c3ccccc3)CC2)n1,> 100
3,COc1cc2c(cc1OCCCCCN1C(=O)c3cccc4cccc(c34)C1=O)N=C[C@@H]1CCCN1C2=O,4.15
4,[N-]=[N+]=CC(=O)OC1CCOCC1,> 100
5,CS(=O)(=O)OCOS(C)(=O)=O,> 100

# Test system: MOLT-4 leukemia
# Assay: NCI tumour cell line growth inhibition, 48 h
row,SMILES,TGI [µM]
1,CCCCN(CC)C(=O)C1=C(C)NC(C)=C(C(=O)N(CC)CCCC)C1,> 100
2,CCOC(=O)c1csc(NC(=O)CN2CCN(c3ccccc3)CC2)n1,> 100
3,COc1cc2c(cc1OCCCCCN1C(=O)c3cccc4cccc(c34)C1=O)N=C[C@@H]1CCCN1C2=O,> 100
4,[N-]=[N+]=CC(=O)OC1CCOCC1,> 100
5,CS(=O)(=O)OCOS(C)(=O)=O,> 100

# Test system: M14 melanoma
# Assay: NCI tumour cell line growth inhibition, 48 h
row,SMILES,TGI [µM]
1,CCCCN(CC)C(=O)C1=C(C)NC(C)=C(C(=O)N(CC)CCCC)C1,> 100
2,CCOC(=O)c1csc(NC(=O)CN2CCN(c3ccccc3)CC2)n1,> 100
3,COc1cc2c(cc1OCCCCCN1C(=O)c3cccc4cccc(c34)C1=O)N=C[C@@H]1CCCN1C2=O,0.349
4,CS(=O)(=O)OCOS(C)(=O)=O,> 100

# Test system: OVCAR-4 ovarian
# Assay: NCI tumour cell line growth inhibition, 48 h
row,SMILES,TGI [µM]
1,CCCCN(CC)C(=O)C1=C(C)NC(C)=C(C(=O)N(CC)CCCC)C1,> 100
2,CCOC(=O)c1csc(NC(=O)CN2CCN(c3ccccc3)CC2)n1,> 100
3,COc1cc2c(cc1OCCCCCN1C(=O)c3cccc4cccc(c34)C1=O)N=C[C@@H]1CCCN1C2=O,> 100
4,[N-]=[N+]=CC(=O)OC1CCOCC1,> 100
5,CS(=O)(=O)OCOS(C)(=O)=O,> 100

# Test system: 786-0 renal
# Assay: NCI tumour cell line growth inhibition, 48 h
row,SMILES,TGI [µM]
1,CCCCN(CC)C(=O)C1=C(C)NC(C)=C(C(=O)N(CC)CCCC)C1,> 100
2,[N-]=[N+]=CC(=O)OC1CCOCC1,> 100
3,CS(=O)(=O)OCOS(C)(=O)=O,> 100

# Test system: UACC-257 melanoma
# Assay: NCI tumour cell line growth inhibition, 48 h
row,SMILES,TGI [µM]
1,CCCCN(CC)C(=O)C1=C(C)NC(C)=C(C(=O)N(CC)CCCC)C1,> 100
2,CCOC(=O)c1csc(NC(=O)CN2CCN(c3ccccc3)CC2)n1,> 100
3,COc1cc2c(cc1OCCCCCN1C(=O)c3cccc4cccc(c34)C1=O)N=C[C@@H]1CCCN1C2=O,1.84
4,[N-]=[N+]=CC(=O)OC1CCOCC1,> 100
5,CS(=O)(=O)OCOS(C)(=O)=O,> 100

# Test system: IGROV1 ovarian
# Assay: NCI tumour cell line growth inhibition, 48 h
row,SMILES,TGI [µM]
1,CCCCN(CC)C(=O)C1=C(C)NC(C)=C(C(=O)N(CC)CCCC)C1,> 100
2,CCOC(=O)c1csc(NC(=O)CN2CCN(c3ccccc3)CC2)n1,> 100
3,COc1cc2c(cc1OCCCCCN1C(=O)c3cccc4cccc(c34)C1=O)N=C[C@@H]1CCCN1C2=O,0.535
4,[N-]=[N+]=CC(=O)OC1CCOCC1,> 100
5,CS(=O)(=O)OCOS(C)(=O)=O,> 100

# Test system: SK-MEL-5 melanoma
# Assay: NCI tumour cell line growth inhibition, 48 h
row,SMILES,TGI [µM]
1,CCCCN(CC)C(=O)C1=C(C)NC(C)=C(C(=O)N(CC)CCCC)C1,> 100
2,CCOC(=O)c1csc(NC(=O)CN2CCN(c3ccccc3)CC2)n1,> 100
3,[N-]=[N+]=CC(=O)OC1CCOCC1,> 100
4,CS(=O)(=O)OCOS(C)(=O)=O,> 100

# Test system: DU-145 prostate
# Assay: NCI tumour cell line growth inhibition, 48 h
row,SMILES,TGI [µM]
1,CCCCN(CC)C(=O)C1=C(C)NC(C)=C(C(=O)N(CC)CCCC)C1,> 100
2,CCOC(=O)c1csc(NC(=O)CN2CCN(c3ccccc3)CC2)n1,> 100
3,COc1cc2c(cc1OCCCCCN1C(=O)c3cccc4cccc(c34)C1=O)N=C[C@@H]1CCCN1C2=O,6.9
4,[N-]=[N+]=CC(=O)OC1CCOCC1,> 100
5,CS(=O)(=O)OCOS(C)(=O)=O,> 100

# Test system: PC-3 prostate
# Assay: NCI tumour cell line growth inhibition, 48 h
row,SMILES,TGI [µM]
1,CCOC(=O)c1csc(NC(=O)CN2CCN(c3ccccc3)CC2)n1,> 100
2,[N-]=[N+]=CC(=O)OC1CCOCC1,> 100
3,CS(=O)(=O)OCOS(C)(=O)=O,> 100

# Test system: SN12C renal
# Assay: NCI tumour cell line growth inhibition, 48 h
row,SMILES,TGI [µM]
1,CCCCN(CC)C(=O)C1=C(C)NC(C)=C(C(=O)N(CC)CCCC)C1,> 100
2,COc1cc2c(cc1OCCCCCN1C(=O)c3cccc4cccc(c34)C1=O)N=C[C@@H]1CCCN1C2=O,9.62
3,[N-]=[N+]=CC(=O)OC1CCOCC1,> 100
4,CS(=O)(=O)OCOS(C)(=O)=O,> 100
